Target: PI3Kδ (Homo sapiens, UniProt O00329)
Experiment: PI3Kδ inhibition, IC50 at 1 mM ATP
Format: biochemical

Chain of PI3Kδ (O00329 whole entry): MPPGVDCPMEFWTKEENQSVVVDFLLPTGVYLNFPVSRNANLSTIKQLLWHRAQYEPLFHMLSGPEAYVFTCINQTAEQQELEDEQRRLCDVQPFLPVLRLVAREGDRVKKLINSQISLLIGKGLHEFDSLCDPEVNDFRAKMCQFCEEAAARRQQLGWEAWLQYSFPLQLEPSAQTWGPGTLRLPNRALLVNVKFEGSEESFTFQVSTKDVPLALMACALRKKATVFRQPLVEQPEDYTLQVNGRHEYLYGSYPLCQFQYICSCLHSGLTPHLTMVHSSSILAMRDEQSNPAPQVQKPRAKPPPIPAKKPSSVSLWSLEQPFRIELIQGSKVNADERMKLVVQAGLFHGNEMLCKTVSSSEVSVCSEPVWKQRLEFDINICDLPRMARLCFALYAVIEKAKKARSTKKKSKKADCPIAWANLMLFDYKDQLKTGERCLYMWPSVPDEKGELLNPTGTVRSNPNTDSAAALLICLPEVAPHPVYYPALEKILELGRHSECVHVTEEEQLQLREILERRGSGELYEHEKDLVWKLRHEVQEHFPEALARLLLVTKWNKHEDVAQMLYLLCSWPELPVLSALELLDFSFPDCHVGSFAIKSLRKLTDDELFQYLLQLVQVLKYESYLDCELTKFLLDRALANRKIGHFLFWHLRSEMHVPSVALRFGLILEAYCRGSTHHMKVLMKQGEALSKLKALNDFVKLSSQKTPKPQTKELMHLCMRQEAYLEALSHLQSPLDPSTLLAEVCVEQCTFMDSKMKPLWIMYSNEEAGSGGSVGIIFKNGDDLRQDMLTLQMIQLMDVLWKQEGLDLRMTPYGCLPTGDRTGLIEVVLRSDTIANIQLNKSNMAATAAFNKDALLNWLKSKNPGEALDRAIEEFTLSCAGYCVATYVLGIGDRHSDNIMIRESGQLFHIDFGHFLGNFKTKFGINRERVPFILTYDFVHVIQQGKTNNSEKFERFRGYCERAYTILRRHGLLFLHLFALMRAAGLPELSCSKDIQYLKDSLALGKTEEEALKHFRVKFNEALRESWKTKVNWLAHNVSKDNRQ
Chain of PI3Kδ (P27986 whole entry partner): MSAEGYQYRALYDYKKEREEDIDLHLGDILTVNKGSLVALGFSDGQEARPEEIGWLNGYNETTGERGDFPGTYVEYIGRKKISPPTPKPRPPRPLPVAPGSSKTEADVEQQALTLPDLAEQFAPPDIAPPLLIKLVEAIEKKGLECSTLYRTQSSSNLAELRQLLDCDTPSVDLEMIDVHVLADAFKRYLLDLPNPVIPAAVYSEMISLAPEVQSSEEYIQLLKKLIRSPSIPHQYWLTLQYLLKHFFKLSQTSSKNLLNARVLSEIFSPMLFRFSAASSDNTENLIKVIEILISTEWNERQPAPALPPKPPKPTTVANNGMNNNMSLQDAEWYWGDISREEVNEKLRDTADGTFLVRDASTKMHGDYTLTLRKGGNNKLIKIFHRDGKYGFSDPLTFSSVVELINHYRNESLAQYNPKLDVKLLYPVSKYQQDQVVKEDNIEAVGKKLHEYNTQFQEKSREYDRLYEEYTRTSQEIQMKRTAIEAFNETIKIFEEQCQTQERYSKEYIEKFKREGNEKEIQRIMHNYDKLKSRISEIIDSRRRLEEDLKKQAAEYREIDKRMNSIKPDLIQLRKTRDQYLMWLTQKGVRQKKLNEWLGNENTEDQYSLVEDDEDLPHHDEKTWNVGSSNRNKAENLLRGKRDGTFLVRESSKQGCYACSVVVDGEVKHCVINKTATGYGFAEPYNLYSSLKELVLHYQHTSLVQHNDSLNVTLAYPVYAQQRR

CCOc1c([C@H](C)n2nc(C)c3c(N)ncnc32)cc(Cl)c(F)c1[C@@H]1CNC(=O)C1 [parsaclisib, (R)-4-(3-((S)-1-(4-amino-3-methyl-1H-pyrazolo[3,4-d]pyrimidin-1-yl)ethyl)-5-chloro-2-ethoxy-6-fluorophenyl) pyrrolidin-2-one]
IC50: 1 nM

— patent US20260060987A1, “METHODS AND COMPOSITIONS FOR RADIOPROTECTION AND MITIGATION OF RADIATION-INDUCED INJURY USING KINASE INHIBITORS” (Incyte Corporation, priority 2024, published 2026)
